Each structure is given as a SMILES string. Like-named read-outs stand apart in the source and are kept apart here.

These results are taken from publication PMC8050233, “Biased cytochrome P450-mediated metabolism via small-molecule ligands binding P450 oxidoreductase” (Nature Communications, 2021).

Data set [1] addresses T1, human POR (Homo sapiens, UniProt A0A9L9PY49).
T1 construct: full-length wild type in pET22b, expressed in E. coli BL21(DE3); bacterial membranes reconstituted in DLPC/DLPG liposomes without further purification, or used as microsomes
T1 sequence (A0A9L9PY49 1-680): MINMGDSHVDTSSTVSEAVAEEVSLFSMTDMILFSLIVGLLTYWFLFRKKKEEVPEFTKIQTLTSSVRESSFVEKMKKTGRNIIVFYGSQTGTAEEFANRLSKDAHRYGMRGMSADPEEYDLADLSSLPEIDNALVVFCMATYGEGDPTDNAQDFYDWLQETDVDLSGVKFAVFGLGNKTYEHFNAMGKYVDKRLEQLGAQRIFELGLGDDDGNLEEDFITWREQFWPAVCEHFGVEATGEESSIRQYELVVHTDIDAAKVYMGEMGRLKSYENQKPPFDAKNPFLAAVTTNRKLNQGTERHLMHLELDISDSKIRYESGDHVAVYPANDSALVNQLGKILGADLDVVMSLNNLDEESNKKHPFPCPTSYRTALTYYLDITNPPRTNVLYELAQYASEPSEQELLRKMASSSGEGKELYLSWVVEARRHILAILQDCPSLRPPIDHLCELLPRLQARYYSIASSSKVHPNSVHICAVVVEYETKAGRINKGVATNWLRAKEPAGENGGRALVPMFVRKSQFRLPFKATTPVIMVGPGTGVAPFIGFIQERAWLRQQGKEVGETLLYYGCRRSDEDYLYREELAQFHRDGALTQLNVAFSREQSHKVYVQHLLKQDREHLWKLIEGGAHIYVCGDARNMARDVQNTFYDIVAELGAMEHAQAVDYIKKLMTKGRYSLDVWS
Description: biochemical. Conditions: Liposomes=Liposomes, electron acceptor as given. On the set-up: POR proteoliposome reduction of cytochrome c, MTT (absorbance) or resazurin (fluorescence), normalized to DMSO control. The procedure:
(§1) Using Cytc, MTT or RS as electron acceptors the change in absorbance (550 nm for Cytc and 610 nm for MTT) or emission (570 nm excitation, 585 nm emission for RS) was monitored as a function of time. Cytc and RS concentrations were both close to KM of the given electron acceptor, while MTT and NADPH were in excess amounts. Concentrations were 40 μM Cytc, 10 μM RS, 500 μM MTT and 100 μM NADPH unless otherwise stated. POR activity was extracted from the slope of the linear region of each trace. Michaelis–Menten kinetics and IC50 curves were performed under identical conditions using relevant substrate and ligand concentrations. All measurements were repeated at least three times and subsequently normalized to DMSO control measurements. […] Fluorescence intensities of resorufin in the presence of rifampicin were corrected according to a linear calibration curve (see Supplementary Fig. 7). Given that point-mutations in human POR can lead to altered specificity towards CYP isoforms[4],[19], we tested whether small-molecule ligands can bias the specificity of human POR to reduce diverse electron acceptors. […] (MTT)[32] (Fig. 2A). Each of the assays relies on spectral changes of the electron acceptor upon reduction by POR and thus directly reports on POR activity towards reducing the specific redox partner (see Supplementary Methods for details). Being comparative these assays exclude artefacts that may originate from potential FMN loss. […] POR plays an omnipotent role as an electron donor to microsomal CYPs in all eukaryotes and serves as a key metabolic hub in plants as well as humans. To test whether the effect of small-molecule ligand binding to POR is an omnipotent phenomenon underlying the regulation of POR in organisms from different kingdoms, we performed binding assays based on intrinsic fluorescence quenching and dose-response experiments on POR2b from the crop plant Sorghum bicolor (SbPOR2b) in proteoliposomes (Fig. 3A, B, Supplementary Fig. 6 and Supplementary Table 3).

The target in data set [2] is T1, human POR. Description: cytochrome c reduction, absorbance […] nm. It counts as biochemical. Conditions: read-out: % of control at 100 μM.
The target in data set [3] is T2, SbPOR2b (Sorghum bicolor, UniProt C5YJG8).
T2 construct: gene CPR; full-length, expressed in E. coli NiCo21(DE3) from pET52b, purified on 2',5'-ADP Sepharose and Q-sepharose, in DLPC/DLPG proteoliposomes; mutant in lipid nanodiscs
Nature of the data set: cytochrome c reduction, absorbance […] nm, Hill fit. It counts as biochemical.

A further data set is described as follows: in vitro. Conditions: human, nci-h295r cells. From the text: We tested the efficiency of the three ligands to elicit a physiological response on steroidogenic CYP activities in cells (Fig. 5A, see Supplementary Methods, Supplementary Fig. 14 and Supplementary Table 4 for all data and number of biological replicates). The 3 tested ligands are not known to interact directly with CYP17, CYP19 or CYP21, albeit rifampicin and [compound left out] are known to interact with liver CYPs like CYP2B6[27] and CYP3A4[28]. Using a human adrenocortical cell line (NCI-H295R) we tested the effect of ligands on CYP17A1 and CYP21A2[59],[60] activities at 10 and 100 μM concentrations (Fig. 5A). Using radiolabeled substrates, we were able to quantify the steroid hormone production of CYP17A1 and CYP21A2 and its remodeling by POR ligands (see Supplementary Methods for details). […]. Rifampicin caused no significant effect on CYP17A1 activity, but reduced CYP21A2 activity at 100 μM (73 ± 4% of control; see Fig. 5A and Supplementary Fig. 14). […]. […]. […] (91 ± 12% of control). Specific inhibition of CY Fig. 5 Biased metabolism: small-molecule ligands bias steroidogenic CYP-activities in human cells and microsomes. A A human adrenocortical cell line (NCI-H295R) was used to assess the effect of small-molecule ligands on steroidogenic CYP17A1 and CYP21A2 hydroxylase activity, and CYP17A1 lyase activity, using radiolabeled substrates (see Supplementary Methods and Supplementary Table 4). Cell viability was assessed based on MTT reduction. […]. The cells display increased MTT reduction indicating increased reductase activity. No significant effects on CYP17A1 activities are observed. [compound left out] causes a significance increase in CYP17A1 lyase and less significant towards 17-OHase and 21A2 activities, while MTT reduction decreases slightly. [compound left out] causes inhibition of both CYP17A1 and CYP21A2 activities. B Abiraterone was used as a control inhibitor of CYP17A1 and CYP21A2 in H295R cells. C The effect of ligands on CYP19A1 activity was assessed on microsomes from a human choriocarcinoma cell line (JEG3). […]. A, C Error bars represent mean ± SD of 3–4 biological replicates normalized to DMSO controls with propagated error. See Supplementary Fig. 14 for raw data and Supplementary Table 4 for exact value of n for each experimental condition. Note, overlapping data points appear shaded. Level of significance is determined by one-way ANOVA and Tukey’s HSD test correcting for multiple comparisons (*p < 0.05; **p < 0.01; ***p < 0.005; see Supplementary Methods for details). Source data are provided as a Source Data file.

The target in data set [4] is T2, SbPOR2b. Description: biochemical. Also on record: POR proteoliposome reduction of cytochrome c, MTT (absorbance) or resazurin (fluorescence), normalized to DMSO control. As to conditions: Liposomes=Liposomes, electron acceptor as given. The procedure: as §1
Data set [5] concerns the target T2, SbPOR2b. Nature of the data set: cytochrome c reduction, absorbance […] nm, Hill fit. It counts as biochemical. This is another data set of the same source.
The target in data set [6] is T2, SbPOR2b. Description: resazurin reduction, fluorescence, Hill fit. The class given is biochemical. From the text:
resazurin reduction, fluorescence, Hill fit on SbPOR2b | activity decrease in Cytc reduction and increase in RS reduction

Data set [7] has as its target T2, SbPOR2b. Nature of the data set: resazurin reduction, fluorescence, Hill fit. It counts as biochemical. The text has this:
resazurin reduction, fluorescence, Hill fit on SbPOR2b | while marginally reducing the capacity in the RS assay
The source holds these as a separate data set.

The mark [8] stands for this setting: read-out: % of control remaining, Cytochrome C=Cytochrome C.
The mark [9] stands for this setting: read-out: % of control remaining, Cytochrome C=MTT.
The mark [10] stands for this setting: read-out: % of control remaining, Cytochrome C=Resazurin.
The mark [11] stands for this setting: Cytochrome C=Cytochrome C, read-out: % of control remaining.
Where [12] appears, read: Cytochrome C=Resazurin, read-out: % of control remaining.
Where [13] appears, read: Cytochrome C=MTT, read-out: % of control remaining.
The mark [14] stands for this setting: Assay=MTT cell viability, DMSO (v/v %)=1, read-out: % viability.

T2 sequence (C5YJG8 whole entry): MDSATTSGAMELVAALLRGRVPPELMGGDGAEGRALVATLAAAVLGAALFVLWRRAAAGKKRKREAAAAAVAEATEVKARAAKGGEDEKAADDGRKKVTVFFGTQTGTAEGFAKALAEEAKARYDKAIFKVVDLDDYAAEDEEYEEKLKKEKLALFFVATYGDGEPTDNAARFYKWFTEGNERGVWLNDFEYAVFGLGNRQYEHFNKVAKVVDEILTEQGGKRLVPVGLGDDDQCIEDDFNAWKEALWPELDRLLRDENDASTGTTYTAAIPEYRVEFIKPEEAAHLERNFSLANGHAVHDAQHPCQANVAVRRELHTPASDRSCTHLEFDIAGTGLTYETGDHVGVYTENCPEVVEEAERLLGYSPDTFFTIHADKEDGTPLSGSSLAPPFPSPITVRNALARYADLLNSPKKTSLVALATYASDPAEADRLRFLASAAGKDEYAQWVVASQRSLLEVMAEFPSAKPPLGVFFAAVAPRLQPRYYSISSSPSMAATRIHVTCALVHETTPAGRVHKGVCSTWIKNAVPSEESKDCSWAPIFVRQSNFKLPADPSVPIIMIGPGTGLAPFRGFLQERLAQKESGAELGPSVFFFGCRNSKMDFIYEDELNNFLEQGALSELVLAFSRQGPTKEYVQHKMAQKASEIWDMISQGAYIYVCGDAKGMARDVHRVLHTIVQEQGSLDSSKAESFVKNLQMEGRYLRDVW

Regarding `CO[C@@]12[C@H](COC(N)=O)C3=C(C(=O)C(C)=C(N)C3=O)N1C[C@@H]1N[C@@H]12` [Mitomycin C], the remaining activity at 10 µM at human POR [1] (setting [8]) was determined as 101%; on human POR [1] (setting [9]) it was 110%; at human POR [1] (setting [10]), 53.7%.
Taken in the same sequence, the figures for `CC(=O)CC(c1ccccc1)c1c(O)c2ccccc2oc1=O` (centres unmarked) [Warfarin] were 102%, 118% and 96.2%.
With `CN/C(=N\CCSCc1nc[nH]c1C)NC#N` [Cimetidine], the remaining activity at 10 µM at human POR [1] (setting [8]) worked out at 110%; on human POR [1] (setting [9]), 96.9%; at human POR [1] (setting [10]), 107%. Moreover, the remaining activity at 100 µM on human POR [1] (setting [8]) was 117%; at human POR [1] (setting [10]), 112%.
Regarding `CC(C)c1nc(CN(C)C(=O)N[C@H](C(=O)N[C@@H](Cc2ccccc2)C[C@H](O)[C@H](Cc2ccccc2)NC(=O)OCc2cncs2)C(C)C)cs1` [Ritonavir], the remaining activity at 10 µM is 108% on human POR [1] (setting [8]), 88.4% on human POR [1] (setting [9]) and 96.9% at human POR [1] (setting [10]). The remaining activity at 100 µM at human POR [1] (setting [8]) was 118%; on human POR [1] (setting [10]), 95.9%.
With `N#C[C@@H](O[C@@H]1O[C@H](CO)[C@@H](O)[C@H](O)[C@H]1O)c1ccc(O)cc1` [dhurrin], the remaining activity at 100 µM on human POR [2] worked out at 48 ± 9%; at SbPOR2b [4] (setting [11]), 156%; on SbPOR2b [4] (setting [12]), 236%; at human POR [1] (setting [13]), 95.9%; on human POR [1] (setting [12]), 81.7%. The same molecule yielded a 50% effective concentration (EC50) on SbPOR2b [3] of 21 ± 12 µM. In addition, in “in vitro”, the viability at 10 µM was determined as 93.6%. Also, in “in vitro”, the viability at 100 µM turned out to be 88.1%. The figures for the remaining activity at 10 µM at SbPOR2b [4] (setting [11]), on human POR [1] (setting [13]) and on human POR [1] (setting [12]) were 128%, 87.7% and 105%, respectively.
`O=P1(N(CCCl)CCCl)NCCCO1` (centres unmarked) [cyclophosphamide] gave an IC50 against SbPOR2b [5] of 228 ± 208 µM. This molecule also gave a half-maximal effective concentration (EC50) at SbPOR2b [6] of 159 ± 136 µM. In “in vitro”, the viability at 10 µM worked out at 87.9% and the viability at 100 µM was found to be 81.4%.
For `CCCCc1oc2ccccc2c1C(=O)c1cc(I)c(OCCN(CC)CC)c(I)c1` [Amiodarone], the remaining activity at 10 µM at human POR [1] (setting [8]) was 95.6%; on human POR [1] (setting [9]), 85.1%; at human POR [1] (setting [10]), 102%. In addition, the figures for the remaining activity at 100 µM on human POR [1] (setting [8]) and at human POR [1] (setting [10]) were 106% and 102%, respectively.
Turning to `CO[C@H]1/C=C/O[C@@]2(C)Oc3c(C)c(O)c4c(O)c(c(/C=N/N5CCN(C)CC5)c(O)c4c3C2=O)NC(=O)/C(C)=C\C=C\[C@H](C)[C@H](O)[C@@H](C)[C@@H](O)[C@@H](C)[C@H](OC(C)=O)[C@@H]1C` [rifampicin], the remaining activity at 100 µM on human POR [2] was determined as 14 ± 5%; on SbPOR2b [4] (setting [8]), 179%; at SbPOR2b [4] (setting [10]), 85%; on human POR [1] (setting [9]), 122%; at human POR [1] (setting [10]), 312%. At SbPOR2b [7], this molecule came in with a half-inhibitory concentration (IC50) of 18 ± 9 µM. Further, at SbPOR2b [3], it took 9 ± 8 µM to reach a half-maximal effect (EC50). For the same molecule, the viability at 10 µM in “in vitro” (setting [14]) came out at 94%. Further, in the data set “in vitro” (setting [14]), the viability at 100 µM was 116%. Besides, the remaining activity at 10 µM on SbPOR2b [4] (setting [8]) stood at 140%; on SbPOR2b [4] (setting [10]), 102%; on human POR [1] (setting [8]), 113%; at human POR [1] (setting [9]), 95.7%; at human POR [1] (setting [10]), 132%.
